Experimental data taken from US11807625B2, “Capsid inhibitors for the prevention of HIV” (Gilead Sciences, Inc., priority 2019, dated 2023).

System: SHIV-162P3
Assay: 7-day antiviral assay (p24 ELISA endpoint) in rhesus PBMCs infected with SHIV-162P3
Type: cell-based
Method: The mean 95% effective concentration (EC95) of 1.91±0.16 nM for a compound of Formula (Ib) (“Compound Ib”) was determined using a 7-day antiviral assay (p24 ELISA endpoint) in rhesus peripheral blood mononuclear cells (PBMCs) infected with SHIV-162P3. A competitive equilibrium dialysis assay was used to quantify rhesus plasma protein binding to Compound Ib, resulting in an inhibitory quotient (IQ) equal to Compound Ib plasma concentrations divided by a mean rhesus plasma protein-binding-adjusted EC95 (paEC95) value of 30.2±2.5 nM.

SMILES: CC(C)(C#Cc1ccc(-c2ccc(Cl)c3c(NS(=O)(=O)C4CC4)nn(CC(F)F)c23)c([C@H](Cc2cc(F)cc(F)c2)NC(=O)Cn2nc(C(F)F)c3c2C(F)(F)[C@@H]2C[C@H]32)n1)S(C)(=O)=O [Compound Ib, N—((S)-1-(3-(4-chloro-3-(cyclopropanesulfonamido)-1-(2,2-difluoroethyl)-1H-indazol-7-yl)-6-(3-methyl-3-(methylsulfonyl)but-1-yn-1-yl)pyridin-2-yl)-2-(3,5-difluorophenyl)ethyl)-2-((3b S,4aR)-3-(difluoromethyl)-5,5-difluoro-3b,4,4a,5-tetrahydro-1H-cyclopropa[3,4]cyclopenta[1,2-c]pyrazol-1-yl)acetamide]
- mean 95% effective concentration (EC95): 1.91 ± 0.16 nM
